{"source": "patent US20080025918A1", "about": "“Invisible light fluorescent platelets for intraoperative detection of vascular thrombosis” (Beth Israel Deaconess Medical Center, Inc., priority 2006, published 2008)", "key": {"[1]": {"assay": "Spectral characteristics and relative fluorescence yield of IR-786 (absorbance and fluorescence measurements)", "assay_type": "physicochemical", "conditions": "for Relative Fluorescence Yield: samples matched for absorbance, 655 nm excitation", "experimental": "Absorbance and fluorescence measurements were performed in 1 cm quartz cuvettes as described previously (Ohnishi et al., Mol. Imaging., 2005; 4(3):172-181). For measurement of relative fluorescence yield, IR-786 samples in Tyrodes-HEPES, methanol, or concentrated in washed platelets were matched for absorbance (0.1 A units) and area under the fluorescence emission curve calculated after excitation with a 5 mW 655 nm laser diode."}, "[2]": {"tested_on": "resting platelets", "assay": "P-selectin surface expression of resting loaded platelets", "assay_type": "cell-based, human", "conditions": "resting platelets loaded with 2 μM IR-786"}, "[3]": {"tested_on": "washed pig platelets", "assay": "Pig platelet aggregation (aggregometry)", "assay_type": "cell-based", "conditions": "washed pig platelets incubated 30 minutes with 2 μM IR-786", "experimental": "To ensure that platelets loaded with 2 μM IR-786 retained function, the ability of IR-786-loaded platelets to aggregate in response to agonists was assessed. Loaded and non-loaded human platelets, resuspended at a density of 4×10^8 cells/mL in modified Tyrodes-HEPES buffer, were stimulated with agonists in siliconized glass tubes in an optical aggregometer (Chronolog, Havertown, Pa.). Assays were performed at 37° C. and with constant stirring. Aggregation was monitored by measurement of optical density of the platelet suspension (Croce et al., J. Biol. Chem., 1999; 274(51):36321-36327)\nThe ability of pig platelets to aggregate following incubation with IR-786 was also tested, using aggregometry as described above."}, "[4]": {"conditions": "following incorporation into platelets"}}}
{"smiles": "CN1C(=CC=C2CCCC(C=CC3=[N+](C)c4ccccc4C3(C)C)=C2Cl)C(C)(C)c2ccccc21.[O-][Cl+3]([O-])([O-])[O-]", "note": "[IR-786]", "values": [{"measurement": "emission maximum", "setting": "[1]; [4]", "value": 804, "unit": "nm"}, {"measurement": "excitation maximum", "setting": "[1]; [4]", "value": 788, "unit": "nm"}, {"measurement": "Peak Absorbance", "setting": "[1]; in Methanol", "value": 775, "unit": "nm"}, {"measurement": "Peak Emission", "setting": "[1]; in Methanol", "value": 797, "unit": "nm"}, {"measurement": "Relative Fluorescence Yield", "setting": "[1]; in Methanol", "value": 9.5}, {"measurement": "Peak Absorbance", "setting": "[1]; in Platelets", "value": 788, "unit": "nm"}, {"measurement": "Peak Emission", "setting": "[1]; in Platelets", "value": 804, "unit": "nm"}, {"measurement": "Relative Fluorescence Yield", "setting": "[1]; in Platelets", "value": 1.0}, {"measurement": "Peak Absorbance", "setting": "[1]; in Tyrode's-HEPES", "value": 769, "unit": "nm"}, {"measurement": "Peak Emission", "setting": "[1]; in Tyrode's-HEPES", "value": 789, "unit": "nm"}, {"measurement": "Relative Fluorescence Yield", "setting": "[1]; in Tyrode's-HEPES", "value": 1.4}, {"measurement": "emission maximum", "setting": "[1]; in aqueous buffer", "value": 788.8, "unit": "nm"}, {"measurement": "excitation maximum", "setting": "[1]; in aqueous buffer", "value": 769.3, "unit": "nm"}, {"measurement": "P-selectin surface expression (platelet activation)", "setting": "[2]", "value": "no significant P-selectin surface expression"}, {"measurement": "aggregation in response to thrombin or CRP", "setting": "[3]", "value": "aggregated normally"}]}
